Test results published in the METLIN SMRT retention time set (Domingo-Almenara et al. 2019).

Assay: gradient 5% acetonitrile 3 min, to 50% in 2 min, to 85% in 15 min, held 3 min, 100 µL/min
Details: column: Zorbax Extend-C18 2.1 x 50 mm; eluents: water / acetonitrile, 0.1% formic acid
In short: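 Data were gathered over 3 months by HPLC coupled to a quadrupole time-of-flight mass spectrometer, operated in positive and negative ionization mode. Mixtures of ~100 pure standards ran on a Zorbax Extend-C18 column (2.1 × 50 mm, 1.8 μm) at 100 μL/min, with water and acetonitrile each containing 0.1% formic acid and dead and dwell volumes of 40 μL and 900 μL. Retention time was read from adduct peaks picked by computer and checked manually.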

RP-LC retention time [s]	SMILES
825	CC1=NS(=O)(=O)c2cccnc2N1c1cccc(Br)c1
722	CCOc1ccc(C(C)C)cc1S(=O)(=O)Nc1cccnc1
928	COc1ccc(-c2noc(C3CCCN3C(=O)Cc3ccsc3)n2)cc1 (stereo not drawn)
932	CCN1C(=O)c2cccnc2Sc2cc(NC(=O)c3ccc(Cl)s3)ccc21
992	O=C1[C@H]2CN(Cc3cccc(Cl)c3F)C[C@H]2C(=O)N1CCc1ccccc1
979	Brc1c(Br)c(Br)c2[nH]cnc2c1Br
687	Cc1sc2ccn(C)c(=O)c2c1C(=O)NCCN1CCc2ccccc2C1
583	CCOC(=O)CCNC(=O)N1CCOc2ccc(N(C)C)cc2C1
632	CCc1nnc(-c2cc(NC(=O)c3ccc4nc[nH]c4c3)c(C)s2)o1
753	Cc1oc(C2CCN(C(=O)Nc3ccccc3F)CC2)nc1C(=O)N1CCCC1
898	CCn1cc(S(=O)(=O)N2CCO[C@@H](COc3ccccn3)[C@@H]2c2ccccc2)cn1
682	O=C(NCC(c1ccc2c(c1)OCO2)N1CCN(c2ccc(F)cc2)CC1)C1CC1 (stereo not drawn)
715	O=S(=O)(Nc1cc(F)ccc1F)c1c[nH]c2ncccc12
613	O=C(c1ccc(=O)n(CCN2CCOCC2)c1)N1CCN(c2ccccc2F)CC1
677	CCc1cccc(C)c1NC(=O)Cn1c(CC)nc2c(c1=O)CN(Cc1ccccc1)CC2
743	O=C(c1ccc(Cl)s1)N1CCN(S(=O)(=O)C2CC2)CC1
864	COc1ccc(-c2nnc3sc(-c4cc(C)on4)nn23)cc1
665	COc1cccc(NC(=O)Nc2c(-c3ccccc3)nc3ccccn23)c1
989	CC(C)n1cc(S(=O)(=O)Nc2ccc(F)cc2Cl)c2cccnc21
1200	CCOc1ccc2cccc(NC(=O)c3ccccc3C(F)(F)F)c2n1

RP-LC retention time [s]	SMILES
987	Cc1ccc(C)c(NC(=O)N2CCc3nc(-c4ccc(F)cc4)ncc3C2)c1
980	COc1ccc(Cl)cc1NC(=O)NCCc1cn(CC(C)C)c2ncccc12
942	COc1cccc(S(=O)(=O)N2CCc3c(c(-c4nnc(-c5ccc(F)cc5)o4)nn3C)C2)c1
759	COC(=O)c1ccccc1NC(=O)c1cnc2sc(C)cn2c1=O
575	CCC(=O)Nc1ccc(S(=O)(=O)N2CCC(N3CCOCC3)CC2)cc1
568	CCNC(=O)c1cc(C)nc2c(C)cccc12
965	Cc1ccc(-c2cn3c(CC(=O)N4c5ccccc5CC4C)csc3n2)cc1C (stereo not drawn)
726	O=C(Cc1cccs1)N1CCCCC1c1nc(-c2cnccn2)no1 (stereo not drawn)
648	O=C(NC1CCCC1)N1CCC2(CC1)N(c1ccccc1)C(=O)CS2=O (stereo not drawn)
860	Cc1ccc(-n2nc(N3CCCN(S(=O)(=O)c4ccccc4F)CC3)ccc2=O)cc1
1160	CCc1ccc(-c2noc(Cn3c(=O)n(CC)c(=O)c4ccccc43)n2)cc1
700	CCCNC(=O)C1CCCN(c2ccc(SCC(=O)Nc3cc(F)ccc3C)nn2)C1 (stereo not drawn)
1140	Cc1ccc(-c2noc(CN3C(=O)COc4cc(Cl)ccc43)n2)cc1
1140	COc1ccc(OCC(=O)Nc2nc(-c3ccc(Cl)cc3)cs2)cc1
620	Cc1ccc(=O)n(CCNC(=O)Cc2cn(C)c3ccccc23)n1
676	Cc1cccn2c(=O)cc(CN(Cc3ccccc3)Cc3ccco3)nc12
795	CCc1nnc(-c2ccc(NC(=O)CCc3ccc(OC)cc3)cc2)o1
949	Cc1cc(C)cc(NC(=O)N(C)CCc2noc(COc3ccccc3)n2)c1
847	O=C(Cc1cccc(F)c1)N1CCN(C(=O)c2cc(-c3cccnc3)n[nH]2)CC1

Further lines, the compound ahead of its results:

SMILES	RP-LC retention time [s]
O=C(Cn1ccc2cc(S(=O)(=O)N3CCCCC3)ccc21)N1CCN(c2ccccn2)CC1	660
COc1cc(NC(=O)C2CCCN2S(=O)(=O)c2ccc3c(c2)CC(C)N3C(C)=O)cc(OC)c1 (stereo not drawn)	844
Cc1ccc(Cl)cc1NS(=O)(=O)c1cc(-c2cc(C(F)(F)F)on2)sc1C	1240
COc1cc(=O)n2c(c1C(=O)Nc1cccc3c1CCCC3)CCCC2	762
CCn1cnc(S(=O)(=O)N2CCC(C(=O)Nc3ccc(C)c(Cl)c3)CC2)c1	822
Cc1ccc(-c2csc(Nc3cc(C)ccn3)n2)cc1	843
CN1Cc2ccccc2-n2ccnc2C12CCN(C(=O)c1cc(F)cc(F)c1)CC2	618
Cc1cccc(OCc2nc(-c3cccc(-c4ccnn4C)c3)no2)c1	824
COc1ccc(C2CC(=O)N(c3cc(C)cc(C)c3)C(=O)C2)cc1OC	891
CCc1noc(NC(C)=O)c1-c1ccc(OC)c(S(=O)(=O)Nc2cccc(F)c2)c1	794
CC(C)CC(=O)N1CCc2c(c(-c3nncn3C(C)C)nn2C)C1	682
CCOc1ccc(-c2csc(NC(=O)CCCOc3ccc(CC)cc3)n2)cc1	1290
Cn1cc(-c2nc(C(=O)N3CCN(c4ccccc4F)CC3)cs2)c2cccnc21	956
CC(C(=O)NCCCN1CCCCCC1)n1c(=O)c(C(F)(F)F)nc2ccccc21 (stereo not drawn)	611
NC(=O)c1[nH]c2ccc(F)cc2c1N1CCCC1=O	637
CCCNC(=O)Cn1cc(C(=O)Nc2ccc(Cl)cc2)c(=O)c2ccc(C)nc21	962
Cc1ccc(Cl)cc1NC(=O)NCC1CCOCC1	750
COCC(=O)N1C[C@@H]2C(=O)N(CCc3ccccc3)C(=O)[C@@H]2C1	662
O=C(Nc1ccccc1)N1CC(c2nc(CCOCC3CC3)no2)C1	792
COCCn1cc(CCNC(=O)Nc2c(C)cccc2C)c2cccnc21	686
O=C(Nc1ccc(OCc2nnc(-c3ccc(Cl)cc3)o2)cc1)c1cccnc1	816
CCc1ccc(-c2cc3c(=O)n(CC(=O)NCC4CCCN4CC)ncn3n2)cc1 (stereo not drawn)	689
COc1cccc(-n2c(=O)c3sccc3n(Cc3nc(-c4ccc(C(C)(C)C)cc4)no3)c2=O)c1	1220
O=C(Nc1nnc(CCS(=O)(=O)c2ccccc2)o1)C1COc2ccccc2O1 (stereo not drawn)	686
COCc1nncn1C1CCN(S(=O)(=O)c2cccc(Cl)c2)CC1	738
Cc1ccc(SCC(=O)N2CCN(c3ccccc3)CC2)cc1	942
O=C(Nc1ccc2c(c1)OCO2)c1noc2c1CCCCC2	967
CCOc1ccc(-c2ccc(=O)n(CCNC(=O)c3cn(C)nc3OC)n2)cc1	645
c1cnn(-c2cc(N3CCSCC3)ncn2)c1	833
